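Results reflect a 48-hour exposure of cells in 96-well plates to compound at five concentrations. Abbreviation: GI50, concentration required for 50% inhibition of growth. TGI denotes the concentration required for complete inhibition of growth.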
Key:
Test in all cases: NCI tumour cell line growth inhibition, 48 h
LXFL 529 NSCLC = tested on: LXFL 529 NSCLC
HS 578T breast = tested on: HS 578T breast
P388/ADR leukemia = tested on: P388/ADR leukemia
MDA-N = tested on: MDA-N
BT-549 breast = tested on: BT-549 breast
786-0 renal = tested on: 786-0 renal

For `Cc1cc(NS(=O)(=O)c2ccc(Nc3c4ccccc4nc4c(C(=O)NCCN(C)C)ccc(Cl)c34)cc2)no1`, the TGI (LXFL 529 NSCLC) was 19.2 µM.
`COC(=O)C(C)N1C(=O)c2ccccc2I1OC(C)=O` (stereo unspecified) gave a GI50 (HS 578T breast) of over 100 µM and a TGI (HS 578T breast) of over 100 µM.
`O=CNc1cccc2c3c([nH]c12)CCCCCC3` showed a TGI (P388/ADR leukemia) of over 100 µM.
`CC(C)(C)OC(=O)NC(Cc1ccccc1)C(=O)N[C@H]1c2ccsc2/C(=N/O)[C@H]1O` (stereo partly specified) showed a TGI (MDA-N) of over 100 µM and a TGI (BT-549 breast) of over 100 µM.
`C=C1C(=O)O[C@H]2C1[C@H](OC(=O)/C(C)=C\COC(C)=O)C[C@]1(CO1)[C@@H]1[C@H](O)[C@H]3O[C@@]3(C)[C@@H]12` (stereo partly specified) showed a TGI (P388/ADR leukemia) of 30 µM.
`COc1ccc(C(=O)Cc2cc(OC)ccc2OC)cc1` was tested, and the TGI (LXFL 529 NSCLC) was over 100 µM.
Compound `CC(C)=CCN(N=O)c1ncnc2nc[nH]c12` has a TGI (MDA-N) of over 100 µM, a TGI (786-0 renal) of over 100 µM and a TGI (HS 578T breast) of over 100 µM.

— PubChem BioAssay (NCI)
